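Exposure lasted 48 hours, with cells grown in 96-well plates and compounds tested at five concentrations. At the GI50, growth is halved. TGI is the concentration that stops growth completely.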 Where a SMILES comes first, the peptide text is derived from it. The star is where a group is joined. Boc = CC(C)(C)OC(=O)*
Tests used:
Assay in all cases: growth of human tumour cells (NCI), 48 h
CAKI-1 renal = system: CAKI-1 renal
COLO 205 colon = system: COLO 205 colon
DLD-1 colon = system: DLD-1 colon
EKVX NSCLC = system: EKVX NSCLC
HCC-2998 colon = system: HCC-2998 colon
KM12 colon = system: KM12 colon
NCI-H522 lung = system: NCI-H522 lung
SF-539 CNS = system: SF-539 CNS
SNB-78 CNS = system: SNB-78 CNS
UACC-62 melanoma = system: UACC-62 melanoma
T-47D breast = system: T-47D breast

| SMILES | TGI (CAKI-1 renal) | TGI (COLO 205 colon) | TGI (DLD-1 colon) | TGI (EKVX NSCLC) | TGI (HCC-2998 colon) | TGI (KM12 colon) | TGI (NCI-H522 lung) | TGI (SF-539 CNS) | TGI (SNB-78 CNS) | TGI (UACC-62 melanoma) | TGI (T-47D breast) | GI50 (CAKI-1 renal) | GI50 (COLO 205 colon) | GI50 (EKVX NSCLC) | GI50 (HCC-2998 colon) | GI50 (KM12 colon) | GI50 (NCI-H522 lung) | GI50 (SF-539 CNS) | GI50 (T-47D breast) | GI50 (UACC-62 melanoma) |
| --- | --- | --- | --- | --- | --- | --- | --- | --- | --- | --- | --- | --- | --- | --- | --- | --- | --- | --- | --- | --- |
| COc1cccc2c1C(=O)c1c(O)c3c(c(O)c1C2=O)C[C@@](O)(C(C)=O)CC3S(=O)(=O)O (some centres not stated) | > 100 µM | > 100 µM | > 100 µM | > 100 µM | > 100 µM | > 100 µM | > 100 µM | > 100 µM | > 100 µM | > 100 µM |  |  |  |  |  |  |  |  |  |  |
| CC1(C)OC[C@H](C(=N)OCc2ccccc2)O1 | > 100 µM | > 100 µM | > 100 µM | > 100 µM | > 100 µM | > 100 µM | > 100 µM | > 100 µM | > 100 µM | > 100 µM |  |  |  |  |  |  |  |  |  |  |
| CN(C)C(=O)Oc1c(Br)cc(Br)cc1C(=O)OCc1ccccc1 | 68.6 µM | 34 µM | > 96.8 µM | > 100 µM | > 96.5 µM | 75.9 µM | > 100 µM | 53.4 µM | > 100 µM | 39.4 µM |  |  |  |  |  |  |  |  |  |  |
| CCc1cc(C)cc2[n+]1CC=C2 | > 100 µM | 81.5 µM |  | 87.9 µM | > 100 µM | > 100 µM | 51.9 µM | 95.6 µM | > 100 µM |  |  |  |  |  |  |  |  |  |  |  |
| CCOC(=O)c1[nH]cc(C)c1-c1cccn1-c1ccc(Cl)cc1[N+](=O)[O-] | > 100 µM | 38.2 µM |  | 88.4 µM | 66.3 µM | 52.9 µM | 34.9 µM | 43.9 µM |  | 48.2 µM | > 100 µM |  |  |  |  |  |  |  |  |  |
| O[C@@H]1C[C@H](Cl)c2c(Cl)sc(Cl)c21 | > 100 µM | > 100 µM |  | > 100 µM | > 100 µM | > 100 µM | > 100 µM | > 100 µM |  | > 100 µM | > 100 µM |  |  |  |  |  |  |  |  |  |
| O=C1/C(=C/c2ccc(O)cc2)CCCC1CN1CCCCC1 (configuration not stated) | 8.3 µM | 4.02 µM |  | 7.8 µM | 17.2 µM | 4.93 µM | 2.79 µM | 8.45 µM |  | 3.46 µM | 5.21 µM |  |  |  |  |  |  |  |  |  |
| COC(=O)C(Cc1ccccc1)NC(=O)C(CS)NC(=O)OC(C)(C)C (stereo not drawn) (Boc-Cys-Phe-OMe; configuration not given here) | > 100 µM | > 100 µM |  | > 100 µM | > 100 µM | > 100 µM | > 100 µM | > 100 µM |  | > 100 µM | > 100 µM |  |  |  |  |  |  |  |  |  |
| CCN1c2ccccc2NC(=S)c2c1n[nH]c2-c1ccccc1 | > 100 µM | > 100 µM |  | > 100 µM | 19.3 µM | 91.1 µM | 52.8 µM | > 100 µM |  | > 100 µM | 74.5 µM |  |  |  |  |  |  |  |  |  |
| CC(=O)OCC1OC(n2cnc3nc(Br)[nH]c(=O)c32)C(OC(C)=O)C1OC(C)=O (configuration not stated) | > 100 µM | > 100 µM |  | > 100 µM | > 100 µM | > 100 µM | > 100 µM | > 100 µM |  | > 100 µM | > 100 µM |  |  |  |  |  |  |  |  |  |
| Clc1ccc(CCNC2(c3cc4ccccc4s3)CCCCC2)cc1Cl | > 100 µM | 49.2 µM |  | 81.3 µM | 22.1 µM | 61.8 µM | 43.9 µM | 46.7 µM |  | 37.2 µM | 46 µM |  |  |  |  |  |  |  |  |  |
| O=P(O)(O)c1ccc(-c2ccc(I)cc2)cc1 | > 100 µM | > 100 µM |  | > 100 µM | > 100 µM | > 100 µM | > 100 µM | > 100 µM |  | > 100 µM | > 100 µM |  |  |  |  |  |  |  |  |  |
| CC[C@@]1(O)C[C@H](OC2CC(N(C)C)C(O)C(C)O2)c2c(cc3c(c2O)C(=O)c2c(O)ccc(O)c2C3=O)[C@H]1C(=O)OC (some centres not stated) | 0.25 µM | 0.359 µM | 0.891 µM | 0.526 µM | 0.579 µM | 1 µM | 0.501 µM | 0.41 µM | 1.34 µM | 0.252 µM |  |  |  |  |  |  |  |  |  |  |
| CCOC(=O)/C=C(/C(=O)OCC)n1cc(C)c(=O)n(Cc2cnnn2COCCOC(C)=O)c1=O | 11 µM | 11.8 µM |  | 29.3 µM | 39.1 µM | 56.2 µM | 3.65 µM | 19.4 µM |  | 30.5 µM | 46.7 µM |  |  |  |  |  |  |  |  |  |
| COc1ccc2c(c1)N(Cc1ccc(Cl)cc1)CCC2N1CCCC1=O (configuration not stated) | 16.7 µM | 20 µM |  | 19.1 µM | > 100 µM | 29.3 µM | 35.8 µM | 69.3 µM |  | 14.9 µM | 26.2 µM | 3.49 µM | 5.33 µM | 3.39 µM | 5.32 µM | 4.84 µM | 4.33 µM | 4.94 µM | 2.85 µM | 3.25 µM |
| CN1CCN(C(=O)CCC(=O)Nc2cc3c(c4ccccc24)-c2ccc4ccccc4c2C3)CC1 | 3.16 µM | 3 µM |  | 3.13 µM | 2.7 µM | 3.2 µM | 3.2 µM | 3.13 µM |  | 3.32 µM | 3.57 µM |  |  |  |  |  |  |  |  |  |
| COC1OCC(O)C(NC(=O)N(C)N=O)C1O (configuration not stated) | > 100 µM | > 100 µM | > 100 µM | > 100 µM | > 100 µM | > 100 µM | > 100 µM | > 100 µM | > 100 µM | > 100 µM |  |  |  |  |  |  |  |  |  |  |
| Nn1c(Nc2ccc(S(N)(=O)=O)cc2)nnc(/C=C/c2c(O)ccc3ccccc23)c1=O | 49.6 µM | 88.1 µM |  | 34.2 µM | 51.9 µM | 52.2 µM | 33 µM | > 100 µM |  | 49.9 µM | 40.6 µM |  |  |  |  |  |  |  |  |  |
| CCCCCCSc1nc(N)nc2nc[nH]c12 |  | > 100 µM | > 100 µM | > 100 µM | > 100 µM | > 100 µM | 40.9 µM | > 100 µM | > 100 µM | > 100 µM |  |  |  |  |  |  |  |  |  |  |
| CN(C)CCNC(=O)c1cccc2ccc(-c3ccc(Br)cc3)nc12 | 7.15 µM | 2.54 µM | 10.8 µM | 9.08 µM | 6.32 µM | 15.5 µM | 4.21 µM | 11.4 µM | 22.5 µM | 3.6 µM |  |  |  |  |  |  |  |  |  |  |
| N[C@H]1c2c(Br)sc(Br)c2C(=O)[C@H]1O | 16.7 µM | 22.2 µM |  | 30.2 µM | 27.5 µM | > 100 µM | 8.97 µM | 36 µM |  | 23.7 µM | 50.3 µM |  |  |  |  |  |  |  |  |  |
| N#Cc1c(N)oc(-c2ccc([N+](=O)[O-])cc2)c1C#N | 54.7 µM | > 100 µM |  | 59.6 µM | > 100 µM | > 100 µM | 60.3 µM | 48.3 µM |  | > 100 µM | 76.2 µM |  |  |  |  |  |  |  |  |  |
| CC(=O)C(=O)NC1/C=C(C)\C=C/C(O)C/C=C(C)\C=C/C(O)CC2OC(=O)C1(C)C(=O)C2C (configuration not stated) | > 100 µM | > 100 µM | > 100 µM | > 100 µM | > 100 µM | > 100 µM | > 100 µM | > 100 µM | > 100 µM | > 100 µM |  |  |  |  |  |  |  |  |  |  |
| COC(=O)CN(CC(=O)NCCCBr)C1CCCCC1N(CC(=O)OC)CC(=O)OC (configuration not stated) | > 100 µM | > 100 µM |  | > 100 µM | > 100 µM | > 100 µM | > 100 µM | > 100 µM |  | > 100 µM | > 100 µM |  |  |  |  |  |  |  |  |  |
| COc1cc(C2c3cc4c(cc3OC(NNc3ccccc3)C2C)OCO4)cc(OC)c1OC (configuration not stated) | > 73 µM | 10.3 µM |  | 21.1 µM | 3.96 µM | 38 µM | 4.72 µM | 1.67 µM |  | > 43.5 µM | > 100 µM |  |  |  |  |  |  |  |  |  |
| Oc1c(CN2CCCC2)ccc2cccnc12 | 60.8 µM | 71.5 µM |  | > 100 µM | > 100 µM | > 100 µM | > 100 µM | > 78.5 µM |  | > 100 µM | > 100 µM |  |  |  |  |  |  |  |  |  |
| O=C(CCBr)N1CCN(C(=O)CCBr)CC1 | 168 µM | 225 µM | 202 µM | 212 µM | 140 µM | 181 µM | 146 µM | 168 µM | 295 µM | 73.3 µM | 232 µM |  |  |  |  |  |  |  |  |  |
| CCOC(=O)c1nc2ccc(OC)cc2c2c1Cc1ccccc1-2 | > 100 µM | > 100 µM | > 100 µM |  | > 100 µM | > 100 µM | > 100 µM | > 100 µM | > 100 µM | > 100 µM |  |  |  |  |  |  |  |  |  |  |
| COc1cccc2c1NC(=O)Cc1c-2[nH]c2ccccc12 | > 100 µM | > 100 µM |  | > 100 µM | > 100 µM | > 100 µM | > 100 µM | > 100 µM |  | > 100 µM | > 100 µM |  |  |  |  |  |  |  |  |  |
| COc1ccc(-n2c(SC(CN3CCOCC3)CN3CCCC3=O)nc3ccccc3c2=O)cc1 (configuration not stated) | > 100 µM | > 100 µM |  | > 100 µM | > 100 µM | > 100 µM | > 100 µM | > 100 µM |  | > 100 µM | > 100 µM |  |  |  |  |  |  |  |  |  |

From PubChem BioAssay (NCI)
